Source: patent US10294234B2, “HIV inhibitor compounds” (priority 2017, dated 2019)
Where two headings read alike, the source gives them in different places.

Tests used:
[1] = tested on: HIV-1 (IIIB) in MT-4 cells; test: MT-4 HIV assay; type: cell-based; details: Human immunodeficiency virus 1, MT4, 120 h
In short: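 Antiviral activity was read by Cell Titer Glo after a 5-day, 37 °C culture of MT-4 cells pre-infected with a 1:250 dilution of HIV-1 (IIIB). Compounds were tested as threefold dilution series in complete RPMI. Controls were no drug, mock infection and 5 uM AZT.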

[2] = In short: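 LC/MS/MS read-out of parent compound remaining; in vitro t1/2 converted to Clint. Incubation: 1 uM compound, 0.5 mg/mL dog/rat/human liver microsomes, NADPH-regenerating system, duplicate sets, time-points 2–65 minutes.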
[3] = human liver microsomes 0.5 mg/mL, 1 uM compound, NADPH
[4] = HIV-1 (IIIB), MT-4 cells, 5 days, Cell Titer Glo, read-out: EC50
[5] = rat liver microsomes 0.5 mg/mL, 1 uM compound, NADPH

Compound	EC50 [1] [nM]	Human Pred Cl. [2, 3] [L/H/kg]	EC50 [1, 4] [nM]	Human Pred Cl. ([2]; human, microsomes) [L/H/kg]	Rat. Pred. Cl. ([2]; rat, microsomes) [L/H/kg]	Rat. Pred. Cl. [2, 5] [L/H/kg]
COC(=O)N[C@H](C(=O)N[C@@H](Cc1ccc(C#Cc2ccc(N3CCN([C@H]4CCOC4)CC3)nc2)cc1)[C@@H](O)CN(Cc1c(F)cc(-c2ccn(C(F)F)n2)cc1F)NC(=O)[C@@H](NC(=O)OC)C(C)(C)C(F)(F)F)C(C)(C)C(F)(F)F [Example 145, Methyl ((5S,8S,9S,14S)-11-(4-(1-(difluoromethyl)-1H-pyrazol-3-yl)-2,6-difluorobenzyl)-16,16,16-trifluoro-9-hydroxy-15,15-dimethyl-3,6,13-trioxo-8-(4-((6-(4-((S)-tetrahydrofuran-3-yl)piperazin-1-yl)pyridin-3-yl)ethynyl)benzyl)-5-(1,1,1-trifluoro-2-methylpropan-2-yl)-2-oxa-4,7,11,12-tetraazahexadecan-14-yl)carbamate]	5.06	<0.11				
COC(=O)N[C@H](C(=O)N[C@@H](Cc1ccc(C#Cc2ccc(N3CCN([C@@H]4CCOC4)CC3)nc2)cc1)[C@@H](O)CN(Cc1c(F)cc(-c2ccn(C(F)F)n2)cc1F)NC(=O)[C@@H](NC(=O)OC)C(C)(C)C(F)(F)F)C(C)(C)C(F)(F)F [Example 146, Methyl ((5S,8S,9S,14S)-11-(4-(1-(difluoromethyl)-1H-pyrazol-3-yl)-2,6-difluorobenzyl)-16,16,16-trifluoro-9-hydroxy-15,15-dimethyl-3,6,13-trioxo-8-(4-((6-(4-((R)-tetrahydrofuran-3-yl)piperazin-1-yl)pyridin-3-yl)ethynyl)benzyl)-5-(1,1,1-trifluoro-2-methylpropan-2-yl)-2-oxa-4,7,11,12-tetraazahexadecan-14-yl)carbamate]		<0.11	8.17			
COC(=O)N[C@H](C(=O)N[C@@H](Cc1ccc(C#Cc2ccc(N3CC4CCC(C3)N4C3COC3)nc2)cc1)[C@@H](O)CN(Cc1c(F)cc(-c2ccc(N3CC4CCC(C3)N4C3COC3)nc2)cc1F)NC(=O)[C@@H](NC(=O)OC)C(C)(C)C(F)(F)F)C(C)(C)C(F)(F)F [Example 147, Methyl ((5S,8S,9S,14S)-11-(2,6-difluoro-4-(6-(8-(oxetan-3-yl)-3,8-diazabicyclo[3.2.1]octan-3-yl)pyridin-3-yl)benzyl)-16,16,16-trifluoro-9-hydroxy-15,15-dimethyl-8-(4-((6-(8-(oxetan-3-yl)-3,8-diazabicyclo [3.2.1]octan-3-yl)pyridin-3-yl)ethynyl)benzyl)-3,6,13-trioxo-5-(1,1,1-trifluoro-2-methylpropan-2-yl)-2-oxa-4,7,11,12-tetraazahexadecan-14-yl)carbamate]			6.79	<0.11		
COC(=O)N[C@H](C(=O)N[C@@H](Cc1ccc(C#Cc2cnc(N3CC4CCC(C3)N4C3COC3)cc2C)cc1)[C@@H](O)CN(Cc1c(F)cc(-c2cnn(C(F)F)c2)cc1F)NC(=O)[C@@H](NC(=O)OC)C(C)(C)C(F)(F)F)C(C)(C)C(F)(F)F [Example 154, Methyl ((5S,8S,9S,14S)-11-(4-(1-(difluoromethyl)-1H-pyrazol-4-yl)-2,6-difluorobenzyl)-16,16,16-trifluoro-9-hydroxy-15,15-dimethyl-8-(4-((4-methyl-6-(8-(oxetan-3-yl)-3,8-diazabicyclo[3.2.1]octan-3-yl)pyridin-3-yl)ethynyl)benzyl)-3,6,13-trioxo-5-(1,1,1-trifluoro-2-methylpropan-2-yl)-2-oxa-4,7,11,12-tetraazahexadecan-14-yl)carbamate]			4.81	<0.11	<0.18	
COC(=O)N[C@H](C(=O)N[C@@H](Cc1ccc(C#Cc2ccc(N3CC4CCC(C3)N4C3COC3)nc2)cc1)[C@@H](O)CN(Cc1ccc(-c2ccn(C(F)F)n2)cc1)NC(=O)[C@@H](NC(=O)OC)C(C)(C)C(F)(F)F)C(C)(C)C(F)(F)F [Example 158, Methyl ((5S,8S,9S,14S)-11-(4-(1-(difluoromethyl)-1H-pyrazol-3-yl)benzyl)-16,16,16-trifluoro-9-hydroxy-15,15-dimethyl-8-(4-((6-(8-(oxetan-3-yl)-3,8-diazabicyclo[3.2.1]octan-3-yl)pyridin-3-yl)ethynyl)benzyl)-3,6,13-trioxo-5-(1,1,1-trifluoro-2-methylpropan-2-yl)-2-oxa-4,7,11,12-tetraazahexadecan-14-yl)carbamate]			4.37	<0.11	0.22	
COC(=O)N[C@H](C(=O)N[C@@H](Cc1ccc(C#Cc2cnc(N3CCN(C)C(=O)C3)nc2)cc1)[C@@H](O)CN(Cc1c(F)cc(-c2ccn(C(F)F)n2)cc1F)NC(=O)[C@@H](NC(=O)OC)C(C)(C)C(F)(F)F)C(C)(C)C(F)(F)F [Example 159, methyl ((5S,8S,9S,14S)-11-(4-(1-(difluoromethyl)-1H-pyrazol-3-yl)-2,6-difluorobenzyl)-16,16,16-trifluoro-9-hydroxy-15,15-dimethyl-8-(4-((2-(4-methyl-3-oxopiperazin-1-yl)pyrimidin-5-yl)ethynyl)benzyl)-3,6,13-trioxo-5-(1,1,1-trifluoro-2-methylpropan-2-yl)-2-oxa-4,7,11,12-tetraazahexadecan-14-yl)carbamate]	3.83	<0.11				
COC(=O)N[C@H](C(=O)N[C@@H](Cc1ccc(C#Cc2ccc(N3CC4(C3)CN(C3COC3)C4)nc2)cc1)[C@@H](O)CN(Cc1c(F)cc(-c2ccn(C(F)F)n2)cc1F)NC(=O)[C@@H](NC(=O)OC)C(C)(C)C(F)(F)F)C(C)(C)C(F)(F)F [Example 163, Methyl ((5S,8S,9S,14S)-11-(4-(1-(difluoromethyl)-1H-pyrazol-3-yl)-2,6-difluorobenzyl)-16,16,16-trifluoro-9-hydroxy-15,15-dimethyl-8-(4-((6-(6-(oxetan-3-yl)-2,6-diazaspiro[3.3]heptan-2-yl)pyridin-3-yl)ethynyl)benzyl)-3,6,13-trioxo-5-(1,1,1-trifluoro-2-methylpropan-2-yl)-2-oxa-4,7,11,12-tetraazahexadecan-14-yl)carbamate]	2.32	<0.11				
COC(=O)N[C@H](C(=O)N[C@@H](Cc1ccc(C#Cc2ccc(N3C[C@@H]4CN(C5COC5)C[C@@H]4C3)nc2)cc1)[C@@H](O)CN(Cc1c(F)cc(-c2ccn(C(F)F)n2)cc1F)NC(=O)[C@@H](NC(=O)OC)C(C)(C)C(F)(F)F)C(C)(C)C(F)(F)F [Example 165, Methyl ((5S,8S,9S,14S)-11-(4-(1-(difluoromethyl)-1H-pyrazol-3-yl)-2,6-difluorobenzyl)-16,16,16-trifluoro-9-hydroxy-15,15-dimethyl-8-(4-((6-((3aR,6aS)-5-(oxetan-3-yl)hexahydropyrrolo[3,4-c]pyrrol-2(1H)-yl)pyridin-3-yl)ethynyl)benzyl)-3,6,13-trioxo-5-(1,1,1-trifluoro-2-methylpropan-2-yl)-2-oxa-4,7,11,12-tetraazahexadecan-14-yl)carbamate]		0.56	4.05			3.2
CCN1C2CCC1CN(c1ccc(C#Cc3ccc(C[C@H](NC(=O)[C@@H](NC(=O)OC)C(C)(C)C(F)(F)F)[C@@H](O)CN(Cc4c(F)cc(-c5cnn(C(F)F)c5)cc4F)NC(=O)[C@@H](NC(=O)OC)C(C)(C)C(F)(F)F)cc3)cn1)C2 [Example 167, Methyl ((5S,8S,9S,14S)-11-(4-(1-(difluoromethyl)-1H-pyrazol-4-yl)-2,6-difluorobenzyl)-8-(4-((6-(8-ethyl-3,8-diazabicyclo[3.2.1]octan-3-yl)pyridin-3-yl)ethynyl)benzyl)-16,16,16-trifluoro-9-hydroxy-15,15-dimethyl-3,6,13-trioxo-5-(1,1,1-trifluoro-2-methylpropan-2-yl)-2-oxa-4,7,11,12-tetraazahexadecan-14-yl)carbamate]			4.97	<0.11		
COC(=O)N[C@H](C(=O)N[C@@H](Cc1ccc(C#Cc2ccc(N3CC4CCC(C3)N4C)nc2)cc1)[C@@H](O)CN(Cc1c(F)cc(-c2cnn(C(F)F)c2)cc1F)NC(=O)[C@@H](NC(=O)OC)C(C)(C)C(F)(F)F)C(C)(C)C(F)(F)F [Example 168, Methyl ((5S,8S,9S,14S)-11-(4-(1-(difluoromethyl)-1H-pyrazol-4-yl)-2,6-difluorobenzyl)-16,16,16-trifluoro-9-hydroxy-15,15-dimethyl-8-(4-((6-(8-methyl-3,8-diazabicyclo[3.2.1]octan-3-yl)pyridin-3-yl)ethynyl)benzyl)-3,6,13-trioxo-5-(1,1,1-trifluoro-2-methylpropan-2-yl)-2-oxa-4,7,11,12-tetraazahexadecan-14-yl)carbamate]			5.48	0.19	2.42	
COC(=O)N[C@H](C(=O)N[C@@H](Cc1ccc(C#Cc2ccc(N3C[C@@H]4C[C@H]3CN4C3COC3)nc2)cc1)[C@@H](O)CN(Cc1c(F)cc(-c2ccn(C(F)F)n2)cc1F)NC(=O)[C@@H](NC(=O)OC)C(C)(C)C(F)(F)F)C(C)(C)C(F)(F)F [Example 174, Methyl ((5S,8S,9S,14S)-11-(4-(1-(difluoromethyl)-1H-pyrazol-3-yl)-2,6-difluorobenzyl)-16,16,16-trifluoro-9-hydroxy-15,15-dimethyl-8-(4-((6-((1S,4S)-5-(oxetan-3-yl)-2,5-diazabicyclo[2.2.1]heptan-2-yl)pyridin-3-yl)ethynyl)benzyl)-3,6,13-trioxo-5-(1,1,1-trifluoro-2-methylpropan-2-yl)-2-oxa-4,7,11,12-tetraazahexadecan-14-yl)carbamate]		0.18	2.33			0.69
